The values below come from US20080051379A1, “Compositions and Methods for the Treatment of Peripheral B-Cell Neoplasms” (Trustees of Boston University, priority 2004, published 2008).

Holding throughout (assay type): cell-based, human
One assay concerns CD3+ CD4+ Sezary cells. The assay is described as follows: Hoechst 33342 apoptosis assay, Sezary cells. As to conditions: 10 μM rolipram or 1 μM hydrocortisone; one patient. As to the method:
Magnetic bead purified peripheral blood T cells or leukemic cells from patients with B-CLL or Sezary syndrome were cultured in media alone or with a dose titration of hydrocortisone (solid line), followed by assessment for apoptosis by Hoechst 33342 FACS analysis at 48 hours. Using the same experimental conditions, the effect of addition of 10 μM rolipram (thick dashed line) or 10 μM rolipram and 40 μM forskolin (dotted line) was also assessed. The SEM of triplicate samples is shown; where not visible, the SEM was less than 1.0%.
(§1) CCRF-CEM cells were obtained from ATCC^27. Leukemic or normal mononuclear cells were obtained by centrifugation over Histopaque 1077 (Sigma Chemical Company, St. Louis, Mo.). For purification of T cells, whole mononuclear cells from normal subjects were incubated with magnetic beads coated with appropriate antibodies, then positively purified using a magnet (Miltenyi). […]
(§2) Hoechst 33342 and DiOC6(3) apoptosis assays were performed as previously described^22,28. […] The absorbance (O.D.) of the formazan product was determined at 492 nm using a plate reader (Titertek Multiscan Plus, Labsystems). Percent cell viability was calculated as follows: (O.D. control sample−O.D. blank)/(O.D. test sample−O.D. blank)×100. […]

Assay [1] deals with GRE luciferase construct in CCRF-CEM cells. The assay is described as follows: GRE luciferase transactivation in CCRF-CEM cells. As to conditions: 40 μM forskolin or 10 μM rolipram. The method, then: B-CLL cells (FIG. 3A) or CCRF-CEM cells (FIG. 3B) were transiently transfected with a luciferase construct in which expression is regulated by GRE elements, followed by culture in 10 μM rolipram (R), 40 μM forskolin (Fsk), 1 μM hydrocortisone (HC), 1 mM Rp-8Br-cAMPS (Rp-8Br) or combinations of these agents. 12 hours after addition of the drugs, the relative luminescence of the samples was determined. The data shown are the mean of 8 experiments for B-CLL and two experiments for CCRF-CEM cells. The single asterisk denote a significant difference by paired student's t test between HC alone and either R/HC (FIG. 3A) or F/HC (FIG. 3B) (p<0.02). The double asterisk denotes a significant difference between Rp-8Br-cAMPS/HC and HC alone (p<0.02).
An MMTV GRE luciferase construct, originally created by Dr. R. Evans, was a gift from Dr. Remco Spanjaard (Dept. of Otolaryngology, Boston Medical Center)^29. […] Triplicate samples were analyzed with an MGM Instruments Optocomp I luminometer (Hamden, Conn.). Analysis of cell viability (trypan blue exclusion) and total protein (Pierce) verified that equivalent numbers of viable B-CLL cells were analyzed. 100 million CCRF-CEM cells were similarly transfected, cultured and analyzed except that Nucleofector program O17 was utilized. […] Data were analyzed using a two-sided paired t test for means.

The subject of assay [2] is glucocorticoid-sensitive subclone (CEM-S2). Nature of the assay: MTS cell survival assay, CEM-S2. As to conditions: dexamethasone-sensitive CCRF-CEM cells; 10 μM, 72 hours. As to the method:
In FIG. 5A, the polyclonal parental cell line (CCRF-CEM), the single cell-derived glucocorticoid-resistant subclone (CEM-R8) and the single cell-derived glucocorticoid-sensitive subclone (CEM-S2) were cultured for 72 hours in the presence of vehicle (ETOH) or dexamethasone at the concentrations indicated and cell viability was assessed by the MTS assay as described in Methods. In FIG. 5B, the glucocorticoid-resistant subclone (CEM-R8) and the glucocorticoid-sensitive subclone (CEM-S2) were cultured for 72 hours in the presence of hydrocortisone (HC) (10 μM HC for the CEM-R8 cells and 1 μM HC for the CEM-S2 cells), 10 μM forskolin (Fsk), 10 μM rolipram (Rol), or combinations of these agents as indicated, and cell viability was assessed by the MTS assay as described in Methods. FIG. 5C: The glucocorticoid-resistant subclone (CEM-R8) and the glucocorticoid-sensitive subclone (CEM-S2) were cultured for 72 hours in the presence of varying amounts of dibutyryl cAMP (db-cAMP) in the absence (−HC) or presence (+HC) of 1 μM hydrocortisone as indicated, and cell viability was assessed by the MTS assay as described in Methods. The data shown were normalized to the vehicle control. Results represent the mean±SD of triplicate determinations.
as §1, §2
(In general: Tetrazolium dyes change colour on reduction, which living cells bring about.)

Consider `COc1ccc(C2CNC(=O)C2)cc1OC1CCCC1` (stereo not drawn) [rolipram, 4-(3-cyclopentyloxy-4-methoxyphenyl)-2-pyrrolidone], for which the “apoptotic effect used separately on Sezary leukemic cells” value in the assay with CD3+ CD4+ Sezary cells is recorded as “little effect”. In assay [1], the “GRE transactivation as a single agent” value is “none”. In assay [2], the “effect on cell viability as single agent” value is reported as “no discernable effect”.
